Measured values: patent US9351971B2, “Substituted 2,2′-biphenazines for treating diseases” (Eutropics Pharmaceuticals, Inc., priority 2010, dated 2016)
“And” between values parts separate entries of the source, which are not always exact repeats. Identical values can stand only once. “Also recorded” adds a separate entry of the source. Like-named read-outs stand apart in the source and are kept apart here. Blank lines part the entries; values can stand above or below the molecule they belong to.

Experiments:
Mcl-1 = target: T1, Mcl-1 (Homo sapiens, UniProt Q07820); assay: Fluorescence polarization assay, Bim BH3 peptide binding to GST-Mcl-1
T1 construct: made in house; host or cells: E. coli
Text: (§1) A nineteen amino acid peptide, corresponding to the BH3 domain of Bim, with the sequence FITC-GGGIAQELRRIGDEFNAY (SEQ ID NO: 1) was labeled with the tluorophore FITC according to the manufacturer's instructions (Molecular Probes, Eugene, Oreg.). This sequence was identified as being able to bind to purified Bcl-xL protein (Sattler et al. (1997) Science 275(5302): 983-86) and to have biological activity in cells (Holinger et al. J. Biol. Chem. 274; 13298-1330).
(§2) In addition, recombinant GST -Mcl-1 and GST-Bcl-xL fusion proteins were generated in E.coli and purified using glutathione-sepharose beads using conventional techniques known to those skilled in the fields of biochemistry and molecular biology, (methods for preparation are described in Strategies for Protein Purification and Characterization, Marshak, D, Kadonga, J, Burgess R, Knuth, M, Brennan, W, Sue-Hwa, L, CSH press, Cold Spring Harbor, N.Y.). Binding of the recombinant proteins to the fluorescent Bim BH3 domain was confirmed by titration of increasing concentrations of the recombinant proteins against a constant amount of labeled Bim peptide (16.65 nM). Quantitation of binding was accomplished by FP assay with mP measurements made on the Analyst-GT reader (Molecular Devices, Sunnyvale, Calif.).
Further, the ability of compound A to disrupt the interaction between the fluorescent Bim BH3 peptide and the two fusion proteins was assessed using a fluorescence polarization assay. The Bim peptide (in solution at 4 nano-Molar) and either GST-Mcl-1 (in solution at 12.5 nM) or GST-Bcl-xL (in solution at 11.8 nM) were first combined together in phosphate buttered saline buffer, and then the compound solution in DMSO was added to final concentrations ranging from 10 μM to 0.1 nM). Normally the unbound Bim polypeptide results in polarization of 5 mP units. Upon binding of the GST-Bcl-xL and GST-Mcl-1 fusion protein, polarization increased to 100 mP units.
(§3) Experiments are performed using the fluorescence polarization assay as described in Example 2. Either Bcl-xL or Mcl-1 fusion proteins were titrated and maximum mp shift indicate binding concentrations for drug titration studies, as described in Example 2. Compound II-19, was titrated from 10 μM to 0.1 nM in 2 fold serial dilution into the peptide/protein solution. The IC50 for blocking each BH3 peptide from Mcl-1 are assessed using FP, as described in Example 2.
as §3, with “Either GST-Bcl-xL” for “Either Bcl-xL”, “or GST-Mcl-1” for “or Mcl-1”, “Compound II-20,” for “Compound II-19,”, “in 2-fold” for “in 2 fold”

[1] = Dose escalation study in SCID mice; type: in vivo; conditions: 60 mg/kg
Protocol: Compound A was tested in SCID mice at SRI International, Menlo Park, Calif. A dose escalation study determined that that the high dose of 60 mg/kg was well-tolerated and could be safely used for the xenograft study for all 3 test articles.

[2] = tested on: NCI-H929 multiple myeloma cell line; assay: Cell viability MTS assay, NCI-H929; type: cell-based; conditions: Homo sapiens, 48 hours
Protocol: (§4) The lymphoid derived cell lines DHL-6 and DHL-10 were obtained from Anthony Letai of the Dana Father Cancer Research Institute, Boston, Mass. The […] derived cell line NCP-H929 was obtained irons, the NIH/NCI cell repository. AML-3 cells were obtained from Dr. Michael Andreef (MD Anderson Cancer Center, Houston, Tex.). Cells were grown in RPMI 1640 medium (GIBCO-BRL) supplemented with Pen-strep-glutamine (Gibco 10378) and 5% fetal bovine serum.
(§5) Cells were expanded in tissue culture in appropriate media and then subcultured into 96-well plates at a seeding density of 20,000-40,000 cells per well, and cells were treated with one or more compounds that were titrated info appropriate medium with FCS. Cell lines were treated with compound A at concentrations ranging from 25 μM to 25 nM. The BH3-mimetic obatoclax (Nguyen M et al. (2007), Proc. Natl. Acad. Sci. USA 104:19512-19517) was also tested against the SUDHL-6, SUDHL-10, and NCI-H929 cell lines. Cells were treated for 48 hours and scored for viability using the MTS assay (Promega). Growth inhibition was indicated as a percentage of control cell growth. Growth was determined by measuring the A570 (control cells)—A570 (treated cells)/A570 (control cells). EC50 values were calculated using Graphpad Prizm software.

CCRF-CEM cells = assay: CCRF-CEM leukemia xenograft study in SCID mice; type: in vivo, mouse; conditions: 60 mg/kg I.P. 5x/week
Protocol: The T Lymphoblastic Leukemic Cell Line CCRF-CEM was purchased from American Type Culture Consortium (ATCC). These cells were maintained in RPMI-1640 medium supplemented with 10% of fetal bovine serum, 2 mM glutamine, and 1 mM sodium pyruvate. The cells were cultured at 37° C. in 95% air/5% CO2 and 100% humidity. Medium in the culture was changed every 48 h and cells were passaged weekly.
For cell implantation to mice, cells were harvested by centrlfugation. Cell pellets were resuspended in PBS and counted using a hemacytometer and Trypan Blue dye to measure the number of viable cells in the suspension. The harvested cells were washed once with PBS and resuspended in serum-free medium at a density of 1×10^7 cells/100 μl.
For this xenograft study, animals were divided into 4 groups of 10 mice each. Groups were treated with test compounds by IP Injection at 60 mg/kg with or vehicle control.
Mice were inoculated with the CCRF-CEM cells (10,000,000 cells) were by tail vein injection. The cell suspensions had the tendency to form clumps. Therefore, during cell inoculation, the cell suspensions had to be mixed well before drawing into the syringe. Gauge 28 needles were used for the injection.
Test articles were dissolved in a mixture of DMSO/Cremophor/water (10:18:72) and administered to the animals in 100 μl aliquots 5× per week beginning 7 days after cells were transplanted into mice. Control dosage was performed under the same schedule.
Throughout the entire study, clinical observations were conducted daily for signs of leukemia development, including lethargy, ruffled fur, lack of responsiveness to stimuli, weight loss, and becoming moribund. On Day 21 after cell inoculation, blood samples were drawn from all groups. The white blood cells of all the blood samples were measured with a Nucleo Counter (ChemMetec, Denmark). […]
After 14 days of treatment, blood samples were taken from all the mice via orbital bleeding while mice were anesthetized using isoflurane inhalation. […] The number of white blood cells was then counted by standard methods.

[3] = Pharmacokinetics of compound A in the mouse; type: in vivo; conditions: for plasma clearance: i.p.; for half-life: plasma, ip
Protocol: Pharmacokinetic studies were conducted on compound A to assess plasma clearance and distribution in the mouse. Compound A was administered i.p. (as in the xenograft study) at 10 mg/kg.
Pharmacokinetic studies were conducted on compound A to assess plasma clearance and distribution in the mouse. Compounds were administered i.p. (as in the xenograft study) at 19 mg/kg.

Bcl-xL = target: T2, Bcl-xL (Homo sapiens, UniProt Q07817); assay: Fluorescence polarization assay, Bim BH3 peptide binding to GST-Bcl-xL; conditions: Bim-BH3-FITC peptide, read-out: IC50, inhibition of Bim-BH3 peptide binding to Bcl-xL
T2 construct: made in house; host or cells: E. coli
Text: as §1, §2
Further, the ability of compound A to disrupt the interaction between the fluorescent Bim BH3 peptide and the two fusion proteins was assessed using a fluorescence polarization assay. […]
(§6) Experiments are performed using the fluorescence polarization assay as described in Example 2. […] The IC50 for blocking each BH3 peptide from Mcl-1 are assessed using FP, as described in Example 2.
as §6

Microsome stability = type: in vitro ADME
NCI H929 tumors = assay: NCI H929 human myeloma xenograft model in mice; type: in vivo, mouse; conditions: bortezomib 1 mg/kg i.p. once every 3 days for 15 days; vehicle 2300 mm^3
Protocol: Cell Culture: Tumor cell line NCI H929 was cultured according to ATCC recommendations in […] containing 10% fetal bovine serum and pen-strep. On the day of implantation, cells were washed 1× with phosphate buffered saline (PBS) and harvested via centrifugation. Cells were pelleted (5 min at 1000 rpm, RT) then resuspended in serum-free matrigel and kept on ice until implantation.
Tumor Cell Implantation: The cell line was implanted via subcutaneous injection on the right rear flank at a volume of 200 μl containing 3×10^7 cells per mouse; the injection site was cleaned using alcohol before and after injection to prevent any infection.
Tumor Assessment: Beginning 1 week post cell implantation all animals were weighed and tagged and tumors were measured and body weights taken 3 times weekly (length×width×height) on Monday, Wednesday, and Friday for the duration of study. Once an average tumor volume of 100-200 mm^3 was reached, animals were randomized and placed into 4 treatment groups of a minimum of 10 mice per group based on tumor size. Randomization was determined by tumor volume (length×width×height)[…] for all of the mice and average volume was calculated using a average function in Excel (Microsoft Professional).
Treatment: The study involved 4 groups of 10 animals per group. Animals in all dose groups were weighed on days of tumor measurement. All doses were administered i.p. at 10 mL/kg. The Bortezormib (1 mg/kg) group was once every 3 days for 15 days. The mice receiving vehicle and compound II-19 were dosed every second day. Compound II-19 was formulated in 1% DMSO, 10 mM Tris pH 8, 30% hydroxypropyl-beta-cyclodextrin; this vehicle was used as the “vehicle” control. Bortezomib was formulated in 30% propylene glycol, 5% Tween 80, 3.3% dextrose in water, pH 4, 1% DMSO.

SUDHL-10 cell line = assay: Cell viability MTS assay, SUDHL-10 (Bax/Bak deficient); type: cell-based, human; conditions: Homo sapiens, SU-DHL10, 48 hours, MTS assay, Bax/Bak deficient cell line
Protocol: as §4, §5

[4] = tested on: SUDHL-6 lymphoid cell line; assay: Cell viability MTS assay, SUDHL-6; type: cell-based; conditions: Homo sapiens, SU-DHL-6, 48 hours
Protocol: as §4, §5

[5] = fluorescent polarisation assay of Examples 2 and 3, read-out: IC50, inhibition of MCL1
[6] = fluorescence polarization, Bim-BH3-FITC peptide, GST-Mcl-1, read-out: IC50, inhibition of Bim-BH3 peptide binding to Mcl-1

T1 sequence (Q07820 whole entry): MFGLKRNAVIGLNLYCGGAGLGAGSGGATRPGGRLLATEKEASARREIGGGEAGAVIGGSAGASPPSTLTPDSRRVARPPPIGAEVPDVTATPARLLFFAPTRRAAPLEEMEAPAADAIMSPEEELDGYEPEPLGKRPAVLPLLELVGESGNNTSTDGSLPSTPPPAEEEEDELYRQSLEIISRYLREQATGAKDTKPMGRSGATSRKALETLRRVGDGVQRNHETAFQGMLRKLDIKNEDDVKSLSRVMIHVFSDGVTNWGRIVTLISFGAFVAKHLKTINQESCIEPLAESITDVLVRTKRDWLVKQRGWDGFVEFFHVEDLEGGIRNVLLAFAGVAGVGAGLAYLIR
T2 sequence (Q07817 whole entry): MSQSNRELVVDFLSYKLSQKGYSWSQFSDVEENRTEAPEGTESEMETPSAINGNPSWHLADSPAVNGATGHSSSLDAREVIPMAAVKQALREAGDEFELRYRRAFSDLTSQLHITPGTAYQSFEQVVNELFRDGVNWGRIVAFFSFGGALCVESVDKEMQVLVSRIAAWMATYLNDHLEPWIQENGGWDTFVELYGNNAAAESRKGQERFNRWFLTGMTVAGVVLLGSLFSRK

- IC50 (Mcl-1; [5]): < 50 µM
Structure (SMILES): COc1cc(-c2ccc(Nc3ccc(C)cc3C(=O)O)c(OC)c2)ccc1Nc1ccc(C)cc1C(=O)O [Ic-17, 6,6′-((3,3′-dimethoxy-[1,1′-biphenyl]-4,4′-diyl)bis(azanediyl))bis(3-methylbenzoic acid)]

Structure (SMILES): COc1cc(-c2ccc(Nc3ccccc3C(=O)O)c(OC)c2)ccc1Nc1ccccc1C(=O)O [Compound A, redoxal]
- tolerability of the high dose [1]: well-tolerated
- EC50 ([2]; read-out: EC50, cell killing in NCI-H929): 1000 nM
- IC50 (Mcl-1; [6]): < 0.5 µM and 0.48 µM
- survival outcome vs vehicle control (CCRF-CEM cells): statistically significant; also recorded: significantly improved
- white blood cells vs vehicle control (CCRF-CEM cells; after 14 days of treatment (Day 21), P<0.02 Students' t test): significantly reduced
- mice still alive on Day 31 (CCRF-CEM cells; all vehicle mice died by Day 31): 60%
- plasma clearance ([3]; 10 mg/kg): 0.08 L/h/kg
- plasma clearance ([3]; 19 mg/kg as printed): 0.08 L/h/kg
- half-life ([3]; 10 mg/kg): 126 min
- half-life ([3]; 19 mg/kg as printed): 126 min
- IC50 (Bcl-xL): > 16000 nM
- microsome stability (Microsome stability): excellent

- IC50 (Mcl-1; [5]): < 50 µM
Structure (SMILES): COc1cc(-c2ccc(Nc3cnccc3C(=O)O)c(OC)c2)ccc1Nc1ccccc1C(=O)O [Ic-8]

Structure (SMILES): CC(C)C[C@H](NC(=O)[C@H](Cc1ccccc1)NC(=O)c1cnccn1)B(O)O [bortezomib, reference compound]
- average tumor volume at the end of the study (NCI H929 tumors): 1180 mm^3

- EC50 ([2]; read-out: EC50 in NCI-H929 (obatoclax)): 1800 nM
- EC50 (SUDHL-10 cell line; read-out: EC50 in SUDHL-10 (obatoclax)): 800 nM
- EC50 ([4]; read-out: EC50 in SUDHL-6 (obatoclax)): 2.5 µM
Structure (SMILES): COC1=CC(c2cc3ccccc3[nH]2)=N/C1=C\c1[nH]c(C)cc1C [obatoclax, reference compound]

- IC50 (Mcl-1; [5]): < 50 µM
Structure (SMILES): COc1cc(-c2ccc(Nc3cccc(C(=O)O)c3)c(OC)c2)ccc1Nc1cccc(C(=O)O)c1 [Ic-1, 3,3′-((3,3′-dimethoxy-[1,1′-bipenyl]-4,4′-diyl)bis(azanediyl))dibenzoic acid]

- IC50 (Mcl-1; [5]): < 50 µM
Structure (SMILES): COc1ccc(C(=O)O)c(Nc2ccc(-c3ccc(Nc4cc(OC)ccc4C(=O)O)c(OC)c3)cc2OC)c1 [Ic-18, 2,2′-((3,3′-dimethoxy-[1,1′-biphenyl]-4,4′-diyl)bis(azanediyl))bis(4-methoxybenzoic acid)]

- IC50 (Mcl-1; [5]): < 50 µM
Structure (SMILES): COc1cc(-c2ccc(Nc3ccc(C)cc3C(=O)O)c(OC)c2)ccc1Nc1ccccc1C(=O)O [Ic-7, 2-((4′-((2-carboxyphenyl)amino)-3,3′-dimethoxy-[1,1′-biphenyl]-4-Yl)amino)-5-methylbenzoic acid]

- IC50 (Mcl-1; [6]): 0.027 µM
- preference for inhibition of Mcl-1 vs. Bcl-xL (Mcl-1; ratio of FP IC50 values): ~5 fold
- IC50 (Bcl-xL): 122 nM
Structure (SMILES): COC(=O)c1ccc(O)c2nc3c(CO)c(O)c(-c4c(O)c(CO)c5nc6c(O)ccc(C(=O)OC)c6nc5c4O)c(O)c3nc12 [II-20, dimethyl 1,1′,3,3′,6,6′-hexahydroxy-4,4′-bis(hydroxymethyl)-[2,2′-biphenazine]-9,9′-dicarboxylate]
- EC50 (SUDHL-10 cell line; read-out: EC50, cell killing in SUDHL-10): > 25000 nM
- EC50 ([4]; read-out: EC50, cell killing in SUDHL-6): 9.7 µM

- IC50 (Mcl-1; [5]): < 50 µM
Structure (SMILES): O=C(O)c1ccccc1Nc1ccc(-c2ccc(Nc3ccccc3C(=O)O)c(O)c2)cc1O [Ic-6, 2,2′-((3,3′-dihydroxy-[1,1′-biphenyl]-4,4′-diyl)bis(azanediyl))dibenzoic acid]
